Source: publication PMC9127186, “Molecular Basis Underlying Hepatobiliary and Renal Excretion of Phenolic Acids of Salvia miltiorrhiza Roots (Danshen)” (Frontiers in Pharmacology, 2022)

Assays:
human BCRP = molecular target: T1, human BCRP (Homo sapiens, UniProt Q9UNQ0); assay: Vesicular transport assay, inside-out membrane vesicles expressing human BCRP; conditions: 10 min
T1 sequence (Q9UNQ0 1-655): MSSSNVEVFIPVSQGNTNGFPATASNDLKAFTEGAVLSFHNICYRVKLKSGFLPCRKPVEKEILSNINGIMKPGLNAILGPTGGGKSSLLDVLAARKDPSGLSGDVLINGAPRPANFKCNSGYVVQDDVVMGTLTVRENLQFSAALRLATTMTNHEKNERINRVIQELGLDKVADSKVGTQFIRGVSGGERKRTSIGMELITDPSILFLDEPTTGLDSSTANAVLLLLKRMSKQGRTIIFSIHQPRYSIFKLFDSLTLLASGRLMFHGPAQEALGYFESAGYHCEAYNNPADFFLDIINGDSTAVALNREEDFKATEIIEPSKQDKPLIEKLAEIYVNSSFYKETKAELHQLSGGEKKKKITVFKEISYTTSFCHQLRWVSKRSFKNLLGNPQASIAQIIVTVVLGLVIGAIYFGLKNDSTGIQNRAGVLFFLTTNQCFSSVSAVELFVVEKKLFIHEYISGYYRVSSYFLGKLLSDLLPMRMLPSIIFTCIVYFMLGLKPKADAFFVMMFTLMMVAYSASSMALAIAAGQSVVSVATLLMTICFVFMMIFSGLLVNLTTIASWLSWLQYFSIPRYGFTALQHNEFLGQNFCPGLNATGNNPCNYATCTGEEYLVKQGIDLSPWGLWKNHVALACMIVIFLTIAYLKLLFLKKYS
Experimental: (§1) Inside-out membrane vesicles (5 mg protein/mL), prepared from insect cells expressing human multidrug resistance-associated protein (MRP) 2, MRP3, MRP4, breast cancer resistance protein (BCRP), bile salt export pump (BSEP), and multidrug resistance protein (MDR) one and rat Mrp2, Mrp4, Bcrp, and Bsep, and vesicles (5 mg protein/mL; prepared from the insect cells expressing no ABC transporter; serving as negative control) were obtained from Genomembrane (Kanazawa, Japan).
(§2) The test Danshen compounds at 100 µM final concentration were separately incubated with the membrane vesicles for 10 min. Buffer C (50 mM MOPS-tris, 70 mM KCl, 7.5 mM MgCl2, pH 7.0) was used for preincubation and incubation, while buffer D (40 mM MOPS-tris, 70 mM KCl, pH 7.0) was used for vesicle washing. The transport rate (pmol/mg protein/min) of the test Danshen compound was calculated using Equation (2): Transport=(CV×VV)/T/WV (2) where C V, V V, T, and W V represent concentration of the compound in vesicular lysates supernatant (μM), volume of the lysates (μL), incubation time (10 min), and amount of vesicle protein amount per well (0.05 mg), respectively. Differential transport of the test Danshen compound between ATP-containing vesicles and AMP-containing vesicles was defined as net transport ratio (TransportATP/TransportAMP ratio). […] All the incubation samples were analyzed by liquid chromatography/mass spectrometry.

rat Mrp2 = rat Mrp2 (Rattus norvegicus, UniProt Q63120); assay: Vesicular transport assay, inside-out membrane vesicles expressing rat Mrp2; conditions: for TransportATP/TransportAMP ratio (net transport ratio): 10 min
Sequence of rat Mrp2 (Q63120 whole entry): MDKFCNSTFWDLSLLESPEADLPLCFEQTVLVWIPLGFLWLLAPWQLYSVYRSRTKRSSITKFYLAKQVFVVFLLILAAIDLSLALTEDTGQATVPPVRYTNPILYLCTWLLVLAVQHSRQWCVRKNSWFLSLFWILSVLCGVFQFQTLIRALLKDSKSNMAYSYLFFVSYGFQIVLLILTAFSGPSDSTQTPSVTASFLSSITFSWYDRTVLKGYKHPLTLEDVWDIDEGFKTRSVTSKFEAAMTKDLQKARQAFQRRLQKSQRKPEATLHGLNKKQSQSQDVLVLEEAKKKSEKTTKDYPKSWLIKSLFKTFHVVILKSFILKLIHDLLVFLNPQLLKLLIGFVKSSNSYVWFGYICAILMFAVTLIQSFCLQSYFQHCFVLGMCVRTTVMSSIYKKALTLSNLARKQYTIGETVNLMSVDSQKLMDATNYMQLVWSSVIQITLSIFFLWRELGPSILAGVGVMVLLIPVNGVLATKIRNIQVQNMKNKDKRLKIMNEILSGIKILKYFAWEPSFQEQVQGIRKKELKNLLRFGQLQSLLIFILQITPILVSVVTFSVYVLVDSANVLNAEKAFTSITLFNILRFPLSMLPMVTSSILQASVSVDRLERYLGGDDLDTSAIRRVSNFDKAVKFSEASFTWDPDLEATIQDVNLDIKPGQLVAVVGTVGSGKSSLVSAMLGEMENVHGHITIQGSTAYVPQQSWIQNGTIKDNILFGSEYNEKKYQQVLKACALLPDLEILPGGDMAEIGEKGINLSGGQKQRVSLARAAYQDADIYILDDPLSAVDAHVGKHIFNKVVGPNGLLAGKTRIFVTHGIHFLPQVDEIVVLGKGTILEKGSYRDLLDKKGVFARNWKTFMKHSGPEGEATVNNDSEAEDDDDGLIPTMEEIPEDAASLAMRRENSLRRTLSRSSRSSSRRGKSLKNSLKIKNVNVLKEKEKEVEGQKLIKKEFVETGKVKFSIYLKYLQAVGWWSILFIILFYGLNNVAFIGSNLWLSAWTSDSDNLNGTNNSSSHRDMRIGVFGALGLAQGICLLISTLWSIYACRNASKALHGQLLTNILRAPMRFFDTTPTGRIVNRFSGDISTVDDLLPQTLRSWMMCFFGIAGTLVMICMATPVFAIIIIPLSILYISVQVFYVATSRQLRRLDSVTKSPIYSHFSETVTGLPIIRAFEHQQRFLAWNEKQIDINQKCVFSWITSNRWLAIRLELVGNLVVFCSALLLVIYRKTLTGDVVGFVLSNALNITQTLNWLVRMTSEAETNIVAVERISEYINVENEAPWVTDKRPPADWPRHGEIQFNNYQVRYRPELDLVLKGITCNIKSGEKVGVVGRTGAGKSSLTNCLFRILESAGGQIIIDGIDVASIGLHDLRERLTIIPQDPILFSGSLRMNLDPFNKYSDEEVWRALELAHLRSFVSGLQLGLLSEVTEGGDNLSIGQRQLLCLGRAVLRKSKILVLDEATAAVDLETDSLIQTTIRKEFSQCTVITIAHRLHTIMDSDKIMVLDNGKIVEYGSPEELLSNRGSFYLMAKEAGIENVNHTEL
Experimental: as §1, §2

rat Mrp4 = molecular target: T2, rat Mrp4 (Rattus norvegicus, UniProt F1M3J4); assay: Vesicular transport assay, inside-out membrane vesicles expressing rat Mrp4; conditions: for TransportATP/TransportAMP ratio (net transport ratio): 10 min
T2 sequence (F1M3J4 1-1325): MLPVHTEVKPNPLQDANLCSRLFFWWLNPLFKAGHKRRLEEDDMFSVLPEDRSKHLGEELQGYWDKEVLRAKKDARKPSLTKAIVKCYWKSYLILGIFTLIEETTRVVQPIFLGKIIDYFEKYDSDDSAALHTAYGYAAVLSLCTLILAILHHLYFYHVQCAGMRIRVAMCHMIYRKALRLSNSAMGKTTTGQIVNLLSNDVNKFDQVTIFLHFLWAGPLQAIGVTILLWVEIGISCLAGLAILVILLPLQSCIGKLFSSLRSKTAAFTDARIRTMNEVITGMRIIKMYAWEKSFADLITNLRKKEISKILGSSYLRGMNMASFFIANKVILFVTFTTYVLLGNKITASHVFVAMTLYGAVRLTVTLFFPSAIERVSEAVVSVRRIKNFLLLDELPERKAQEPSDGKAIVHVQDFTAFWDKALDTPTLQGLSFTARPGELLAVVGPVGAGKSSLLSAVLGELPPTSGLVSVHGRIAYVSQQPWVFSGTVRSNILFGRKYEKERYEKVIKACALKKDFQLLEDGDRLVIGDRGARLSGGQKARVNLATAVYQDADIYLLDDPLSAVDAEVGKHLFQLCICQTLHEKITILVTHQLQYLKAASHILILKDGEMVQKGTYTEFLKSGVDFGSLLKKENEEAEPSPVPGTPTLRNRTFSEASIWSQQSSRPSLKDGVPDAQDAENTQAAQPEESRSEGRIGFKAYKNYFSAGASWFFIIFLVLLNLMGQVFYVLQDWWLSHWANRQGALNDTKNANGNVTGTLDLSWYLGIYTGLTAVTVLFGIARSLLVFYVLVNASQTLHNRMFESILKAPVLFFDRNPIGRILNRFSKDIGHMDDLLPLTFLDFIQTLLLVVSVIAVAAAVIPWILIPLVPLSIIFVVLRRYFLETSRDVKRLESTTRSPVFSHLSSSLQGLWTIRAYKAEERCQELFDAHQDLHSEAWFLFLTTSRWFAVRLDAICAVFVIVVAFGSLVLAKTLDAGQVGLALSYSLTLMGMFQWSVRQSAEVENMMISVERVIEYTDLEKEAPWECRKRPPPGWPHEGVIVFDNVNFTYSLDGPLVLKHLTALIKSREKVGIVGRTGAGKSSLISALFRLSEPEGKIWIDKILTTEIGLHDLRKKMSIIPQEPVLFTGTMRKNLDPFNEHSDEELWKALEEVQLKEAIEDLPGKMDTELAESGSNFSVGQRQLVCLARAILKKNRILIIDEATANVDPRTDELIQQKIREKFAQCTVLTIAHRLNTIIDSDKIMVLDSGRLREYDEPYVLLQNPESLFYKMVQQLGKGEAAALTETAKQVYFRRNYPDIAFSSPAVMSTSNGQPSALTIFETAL
Experimental: as §1, §2

[1] = Danshen phenolic acid at 100 μM final concentration, human BCRP vesicles
[2] = Danshen phenolic acid at 100 μM final concentration, rat Mrp2 vesicles
[3] = Danshen phenolic acid at 100 μM final concentration, rat Mrp4 vesicles

Compound | TransportATP/TransportAMP ratio (net transport ratio) (human BCRP; [1]) | TransportATP/TransportAMP ratio (net transport ratio) (rat Mrp2; [2]) | TransportATP/TransportAMP ratio (net transport ratio) (rat Mrp4; [3]) | TransportATP/TransportAMP ratio (net transport ratio) (human BCRP; human, not told, 100 μM, pH 7) | TransportATP/TransportAMP ratio (net transport ratio) (rat Mrp2; rat, 100 μM, pH 7) | substrate of rat Mrp4 (rat Mrp4) | TransportATP/TransportAMP ratio (net transport ratio) (rat Mrp4; rat, 100 μM, pH 7) | substrate of rat Mrp2 (rat Mrp2)
O=C(/C=C/c1ccc(O)c2c1[C@H](C(=O)O)[C@@H](c1ccc(O)c(O)c1)O2)O[C@H](Cc1ccc(O)c(O)c1)C(=O)O [Lithospermic acid, lithospermic acid] | 1.12 ± 0.31 | 1.83 ± 0.45 | 1.46 ± 0.01 |  |  |  |  | 
O=C(O)c1ccc(O)c(O)c1 [Protocatechuic acid, protocatechuic acid] | 1.04 ± 0.19 | 0.74 ± 0.13 | 1.17 ± 0.06 |  |  |  |  | 
O=C(/C=C/c1ccc(O)c(O)c1)O[C@H](Cc1ccc(O)c(O)c1)C(=O)O [Rosmarinic acid, rosmarinic acid] |  |  |  | 1.12 ± 0.55 | 1.24 ± 0.45 | substrates | 4.79 ± 0.38 | 
O=C(/C=C/c1ccc(O)c(O)c1/C=C/c1ccc(O)c(O)c1)O[C@H](Cc1ccc(O)c(O)c1)C(=O)O [Salvianolic acid A, salvianolic acid A] |  |  |  | 1.12 ± 0.35 | 1.80 ± 0.81 |  | 2.09 ± 0.25 | 
O=C(O)Cc1c(/C=C/C(=O)O[C@H](Cc2ccc(O)c(O)c2)C(=O)O)ccc(O)c1O [Salvianolic acid D, salvianolic acid D] | 2.22 ± 0.61 | 2.21 ± 0.89 | 11.1 ± 0.2 |  |  | substrates |  | 
salvianolic acid B | 1.54 ± 0.78 | 4.43 ± 1.12 | 2.15 ± 0.32 |  |  |  |  | substrate
